PMC8658026, “The N-Acetylglucosamine Kinase from Yarrowia lipolytica Is a Moonlighting Protein” (International Journal of Molecular Sciences, 2021)

What was measured:
YlNag5 (NAGA kinase) [1] = molecular target: T1, YlNag5 (NAGA kinase) (Yarrowia lipolytica, UniProt Q6C584, D214V); assay: residual NAGA assay after incubation with extract; type: biochemical
T1 construct: gene YALI0_E20207g

YlNag5 (NAGA kinase) [2] = molecular target: T2, YlNag5 (NAGA kinase) (Yarrowia lipolytica, UniProt Q6C584, F320S); assay: residual NAGA assay after incubation with extract; type: biochemical
T2 construct: gene YALI0_E20207g
T2 sequence (Q6C584 entry or part of it F320S): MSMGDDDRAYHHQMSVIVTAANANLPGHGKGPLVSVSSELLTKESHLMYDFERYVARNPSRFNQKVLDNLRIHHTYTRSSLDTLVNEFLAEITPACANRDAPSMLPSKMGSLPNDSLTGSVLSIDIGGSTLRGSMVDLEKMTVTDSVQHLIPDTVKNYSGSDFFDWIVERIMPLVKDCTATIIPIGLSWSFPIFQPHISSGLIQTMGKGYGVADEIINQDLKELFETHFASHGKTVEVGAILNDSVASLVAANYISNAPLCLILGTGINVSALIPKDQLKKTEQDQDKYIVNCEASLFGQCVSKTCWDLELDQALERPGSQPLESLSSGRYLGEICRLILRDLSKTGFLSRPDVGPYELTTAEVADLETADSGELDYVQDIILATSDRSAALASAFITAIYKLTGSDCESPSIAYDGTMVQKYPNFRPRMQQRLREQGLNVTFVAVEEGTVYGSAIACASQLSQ

T1 sequence (Q6C584 entry or part of it D214V): as the sequence (Q6C584 entry or part of it F320S) above, with D214V, S320F counted along it

CC(=O)N[C@H]1C(O)O[C@H](CO)[C@@H](O)[C@@H]1O (some centres unmarked) [NAGA]
residual NAGA assay after incubation with extract (YlNag5 (NAGA kinase) [1]): strains expressing the F320S or D214V variants of YlNag5 exhibited low or moderate kinase activity | residual NAGA assay after incubation with extract (YlNag5 (NAGA kinase) [2]): strains expressing the F320S or D214V variants of YlNag5 exhibited low or moderate kinase activity
